Test results: patent publication US20230093594A1, “PANTETHENOYLCYSTEINE DERIVATIVES AND USES THEREOF” (Comet Therapeutics, Inc., priority 2019, published 2023)

Assays:
[1] = system: Bronchial epithelial cells (BE3C system); test: BioMAP BE3C system (IL-1β, TNFα, IFNγ, 24h); assay type: cell-based, human; conditions: procedure of Example 47 (BE3C), 10 μM
Method: (§1) The BioMAP platform is an in vitro phenotypic profiling technology that screened the compounds of the present disclosure (hereafter indicated as test agents) in human primary cell-based systems modelling complex tissue and disease states. The BioMAP assays were performed using the Eurofin's BioMAP Technology Platform as referenced in below articles to model different diseases on primary cell-based model systems. These systems consisted of either single primary cell types or co-culture cells. Adherent cell types were cultured or co-cultured in 96 or 384-well plates until confluence followed by the addition of compounds prepared in DMSO at a final concentration of <0.1%. […]
Following the general procedure as described in Example 40, Bronchial epithelial cells (BE3C system) were treated with IL-1β, TNFα and IFNγ for 24h in the presence or absence of the compounds to model lung inflammation and chronic obstructive pulmonary disease (COPD). Biomarkers read out were; ICAM-1, uPAR, IP-10, I-TA C, IL-A, MIG, EGFR, HLA-DR, IL-1α, Keratin 8/18, MMP-1, MMP-9, PAI-1, SRB, tPA, uPA.

[2] = system: Keratinocytes co-cultured with dermal fibroblast (KF3CT system); test: BioMAP KF3CT system (IL-1β, TNFα, IFNγ, TGFβ, 24h); assay type: cell-based, human; conditions: procedure of Example 50 (KF3CT), 1 μM
Method: (§2) The BioMAP platform is an in vitro phenotypic profiling technology that screened the compounds of the present disclosure (hereafter indicated as test agents) in human primary cell-based systems modelling complex tissue and disease states. The BioMAP assays were performed using the Eurofin's BioMAP Technology Platform as referenced in below articles to model different diseases on primary cell-based model systems. These systems consisted of either single primary cell types or co-culture cells. Adherent cell types were cultured or co-cultured in 96 or 384-well plates until confluence followed by the addition of compounds prepared in DMSO at a final concentration of <0.1%. In each cell-based system, primary cells from heathy donors (2-6 donors) were pooled and treated with compounds at 1 and 10 μM dose 1h prior to stimulation and remain in culture as indicated in Example 41, Example 42, Example 43, Example 44, Example 45, Example 46, Example 47, Example 48, Example 49, Example 50, Example 51, Example 52.
Following the general procedure as described in Example 40, Keratinocytes were co-cultured with dermal fibroblast (KF3CT system) and treated with IL-1β, TNFα, IFNγ and TGFβ for 24h in the presence or absence of the compounds to model psoriasis, dermatitis and skin biology. Biomarkers read out were; MCP-1, ICAM-1, IP-10, IL-8, MIG, IL-1α, MMP-9, PAI, SRB, TIMP-2, uPA.

[3] = system: human primary cell-based systems; test: BioMAP assay, general procedure of Example 40 (system not stated)
Method: as §2

[4] = system: Venular Endothelial cells (HUVEC) (3C system); test: BioMAP 3C system (IL-1β, TNFα, IFNγ, 24h); assay type: cell-based, human; conditions: procedure of Example 41 (3C), 10 μM
Method: as §1
Following the general procedure as described in Example 40, Venular Endothelial cells (HUVEC) (3C system) were treated with IL-1β, TNFα, IFNγ for 24h to model Th1 driven cardiovascular and chronic inflammation diseases in the presence or absence of the compounds. Biomarker read out were; Tissue Factor, ICAM-1, E-selectin, uPAR (CD87), IL-8, MIG, HLA-DR, proliferation and SRB (Sulfo-rhodamine i.e., staining for protein content).

[5] = system: Peripheral blood mononuclear cells co-cultured with B-cells (BT system); test: BioMAP BT system (a-IgM and TCR ligands, 72h); assay type: cell-based, human; conditions: procedure of Example 45 (BT)
Method: as §2
Following the general procedure as described in Example 40, Peripheral blood mononuclear cells were co-cultured with B-cells (BT system) were treated with either a-IgM and TCR ligands for 72h in the presence or absence of the compounds to model asthma, allergy, oncology and autoimmunity. Biomarkers read out were; B-cell proliferation, PBMC cytotoxicity, secreted IgG, sIL-17A, sIL-17F, siL-2, sIL-6 and s-TNFα.

[6] = system: MMA Patient fibroblasts (GM00371); test: Mitochondrial morphology imaging in MMA patient fibroblasts (GM00371); assay type: cell-based; conditions: image compared with fragmented mitochondria in vehicle control
[7] = system: Dermal fibroblasts (HDF3CGF system); test: BioMAP HDF3CGF system (IL-1β, TNFα, IFNγ, EGF, bFGF, PDGF-BB, 24h); assay type: cell-based, human; conditions: procedure of Example 49 (HDF3CGF), 10 μM
Method: as §2
Following the general procedure as described in Example 40, Dermal fibroblasts (HDF3CGF system) were treated with IL-1β, TNFα and IFNγ, EGF, bFGF and PDGF-BB for 24h in the presence or absence of the compounds to model fibrosis and chronic inflammation. Biomarkers read out were; MCP-1, VCAM-1, ICAM-1, Collagen-I, Collagen-III, IP-10, I-TAC, IL-8, MIG, EGFR, M-CSF, MMP-1, PAI-1, SRB, TIMP-1, TIMP-2 and proliferation was measured for 72h.

[8] = system: MMA Patient fibroblasts (TSI 3739); test: Mitochondrial morphology imaging in MMA patient fibroblasts (TSI 3739); assay type: cell-based; conditions: image compared with fragmented mitochondria in vehicle control
[9] = system: Peripheral blood mononuclear cells co-cultured with venular endothelial cells (HUVEC) (LPS system); test: BioMAP LPS system (LPS, 24h); assay type: cell-based, human; conditions: procedure of Example 43 (LPS)
Method: as §2
Following the general procedure as described in Example 40, Peripheral blood mononuclear cells co-cultured with venular endothelial cells (HUVEC) (LPS system) were stimulated with LPS for 24h in the presence or absence of compounds, to model cardiovascular disease and chronic inflammation. Biomarkers read out were; MCP-1, VCAM-1, Thrombomodulin, Tissue Factor, CD40, E-selectin, CD69, IL-8, IL-1α, M-CSF, sPGE2, SRB and TNFα.

[10] = system: Venular Endothelial cells (HUVEC) (4H system); test: BioMAP 4H system (IL-4 and histamine, 24h); assay type: cell-based, human; conditions: procedure of Example 42, 10 μM
Method: as §2
Following the general procedure as described in Example 40, Venular Endothelial cells (HUVEC) (4H system) were treated with IL-4 and histamine for 24h to model Th2 driven allergy and autoimmunity in the presence or absence of compounds. […]

[11] = system: Venular endothelial cells co-cultured with macrophages (Mphg system); test: BioMAP Mphg system (TLR2 ligand, 24h); assay type: cell-based, human
Method: as §2
Following the general procedure as described in Example 40, Venular endothelial cells co-cultured with macrophages (Mphg system) and treated with TLR2 ligand for 24h in the presence or absence of the compounds to mimic cardiovascular inflammation, restenosis and chronic inflammation. Biomarkers read out were; MCP-1, MIP-1α, VCAM-1, CD40, E-selectin, CD69, IL-8, IL-1α, M-CSF, sIL-10 and SRB.

[12] = system: Bronchial epithelial cells co-cultured with dermal fibroblast (BF4T system); test: BioMAP BF4T system (TNFα and IL-4, 24h); assay type: cell-based, human; conditions: procedure of Example 46 (BF4T), 10 μM
Method: as §2
Following the general procedure as described in Example 40, Bronchial epithelial cells were co-cultured with dermal fibroblast (BF4T system) and were treated with TNFα. and IL-4 for 24h in the presence or absence of the compounds to model asthma, allergy, fibrosis, lung inflammation. Biomarkers read out were; MCP-1, Eotaxin-3, VCAM-1, ICAM-1, CD90, IL-8, IL-la, keratin 8/18, MMP-1, MMP-3, MMP-9, PAI-1, SRB, tPA, uPA.

[13] = system: Peripheral blood mononuclear cells co-cultured with venular endothelial cells (Sag system); test: BioMAP SAg system (T-cell ligands); assay type: cell-based, human; conditions: procedure of Example 44 (SAg), 10 μM
Method: as §1
Following the general procedure as described in Example 40, Peripheral blood mononuclear cells were co-cultured with venular endothelial cells and treated with […] (T-cell ligands) (Sag system) in the presence or absence of compounds to model autoimmune and chronic inflammation Biomarkers read out were; MCP-1, CD38, CD40, E-selectin, CD69, IL-8, MIG, PBMC cytotoxicity, Proliferation and SRB.

[14] = procedure of Example 52 (Mphg), 10 μM

With `COC(=O)CCC(=O)SC[C@H](NC(=O)CCNC(=O)[C@H](O)C(C)(C)CO)C(=O)OC` [Compound 8, methyl 4-[[(2R)-2-[3-[(2R)-2,4-dihydroxy-3,3-dimethylbutanamido]propanamido]-3-methoxy-3-oxopropyl]sulfanyl]-4-oxobutanoate] the “% decrease in uPA” value [1] was no less than 10%, the “% increase in PAI-I” value [1] was no less than 10% and the “% decrease in MMP-9” value [2] was no less than 10%. The “% decrease in Serum Amyloid A” value ([3]; procedure of Example 40, 1 μM) was no less than 10%, the “% decrease in VCAM-1” value ([3]; procedure of Example 40, 1 μM) was no less than 10% and the “% increase in Collagen I” value ([3]; procedure of Example 40, 1 μM) was no less than 10%. The “% decrease in Proliferation” value ([3]; procedure of Example 40, 10 μM) was no less than 10%, the “% decrease in Thrombomodulin” value ([3]; procedure of Example 40, 10 μM) was no less than 20% and the “% increase in HLA-DR” value ([3]; procedure of Example 40, 10 μM) was no less than 10%. The “% increase in IL-6” value ([3]; procedure of Example 40, 10 μM) was no less than 10%, the “% decrease in IL-8” value [4] was no less than 10% and the “% decrease in sTNFα” value ([5]; 1 μM) was no less than 10%. For the same molecule, the “% decrease in sIL-17” value ([5]; 10 μM) was no less than 20%, the “% increase in sIL-2” value ([5]; 10 μM) was no less than 20% and the “mitochondrial morphology (elongation and networking of mitochondria)” value [6] was “elongation and networking of mitochondria promoted”. The “% decrease in TIMP-1” value [7] was no less than 10%, the “% decrease in TIMP-2” value [7] was no less than 10% and the “% increase in Collagen III” value [7] was no less than 20%. The “mitochondrial morphology (elongation and networking of mitochondria)” value [8] was “elongation and networking of mitochondria promoted”, the “% decrease in IL-1α” value ([9]; 1 μM) was no less than 20% and the “% decrease in IL-8” value ([9]; 10 μM) was no less than 20%. The “% decrease in M-CSF” value ([9]; 10 μM) was no less than 10%, the “% decrease in TissueFactor” value ([9]; 10 μM) was no less than 10% and the “% increase in sTNFα” value ([9]; 10 μM) was no less than 10%. For the same molecule, the “% decrease in E-Selectin” value [10] was no less than 20%, the “% decrease in CD69” value ([11]; procedure of Example 52 (Mphg), 1 μM) was no less than 20% and the “% decrease in E-Selectin” value [11, 14] was no less than 10%. For the same molecule, the “% decrease in IL-8” value [11, 14] was no less than 20%, the “% decrease in α-SMA” value ([11]; procedure of Example 52, 1 μM) was no less than 10% and the “% increase in MMP-1” value ([11]; procedure of Example 52, 1 μM) was no less than 10%. For the same molecule, the “% decrease in IL-1α” value [12] was no less than 10%, the “% decrease in MMP-9” value [12] was no less than 10% and the “% increase in VCAM-1” value [12] was no less than 10%. The “% increase in CD69” value [13] was no less than 10%.
